This is an account of results in patent US11007282B2, “Compositions for circulatory system visualization” (DICRONIS SAGL, priority 2015, dated 2021).

Data set [1] in a line: In vitro fluorescence quantification of PVP-ICG formulations (Kollidon 17 PF), microplate reader. As to conditions: λEx/Em 770/818 nm.
The conditions of data set [2]: in vivo; cited from earlier work.

For `CC1(C)C(/C=C/C=C/C=C/C=C2\N(CCCCS(=O)(=O)O)c3ccc4ccccc4c3C2(C)C)=[N+](CCCCS(=O)(=O)[O-])c2ccc3ccccc3c21` [ICG, sodium 4-[2-[(1E,3E,5E,7Z)-7-[1,1-dimethyl-3-(4-sulfonatobutyl)benzo[e]indol-2-ylidene]hepta-1,3,5-trienyl]-1,1-imethylbenzo[e]-indol-3-ium-3-yl]butane-1-sulfonate], the “n-fold increase of ICG fluorescence in presence of PVP compared to water solution” value stood at 1.32 n-fold in data set [1] (ICG 0.025 mg/mL, Kollidon 17 PF 0.25 g/mL (1:10'000)); 1.68 n-fold in data set [1] (ICG 0.06 mg/mL, Kollidon 17 PF 0.25 g/mL (1:4'166)); 2.2 n-fold in data set [1] (ICG 0.15 mg/mL, Kollidon 17 PF 0.25 g/mL (1:1'666)). Also, in data set [2], the route of excretion result was “excreted exclusively in the bile”.
